Laboratory results: ChEMBL document CHEMBL3046346, “Synthesis and analgesic, anti-inflammatory activities of 3-(3-methoxyphenyl)-2-substituted amino-quinazolin-4(3H)-ones” (Med Chem Res, 2011)

Key:
[1] = test system: Mus musculus; assay: […] activity in Mus musculus Wistar albino (mouse) at 10 mg/kg, po after 30 min by tail-flick test; type: functional
[2] = test system: Rattus norvegicus; assay: Anti-inflammatory activity in Rattus norvegicus (rat) assessed as inhibition of carrageenan-induced paw edema at 10 mg/kg, po measured at 3 hr; type: functional
[3] = test system: Mus musculus; assay: […] activity in Mus musculus Wistar albino (mouse) at 10 mg/kg, po after 2 hr by tail-flick test; type: functional
[4] = test system: Mus musculus; assay: […] activity in Mus musculus Wistar albino (mouse) at 10 mg/kg, po after 3 hr by tail-flick test; type: functional
[5] = test system: Rattus norvegicus; assay: Gastrointestinal toxicity in fasted Rattus norvegicus Wistar albino (rat) assessed as ulcer index at 20 mg/kg, ip measured after 4 hr; type: organism-based; design: dose 20 mg/kg, route intraperitoneal; settings: in vivo
[6] = test system: Mus musculus; assay: […] activity in Mus musculus Wistar albino (mouse) at 10 mg/kg, po after 1 hr by tail-flick test; type: functional
[7] = test system: Rattus norvegicus; assay: Anti-inflammatory activity in Rattus norvegicus (rat) assessed as inhibition of carrageenan-induced paw edema at 10 mg/kg, po measured at 2 hr; type: functional
[8] = test system: Rattus norvegicus; assay: Anti-inflammatory activity in Rattus norvegicus (rat) assessed as inhibition of carrageenan-induced paw edema at 10 mg/kg, po measured at 30 min; type: functional; settings: 0.5 h
[9] = test system: Rattus norvegicus; assay: Anti-inflammatory activity in Rattus norvegicus (rat) assessed as inhibition of carrageenan-induced paw edema at 10 mg/kg, po measured at 1 hr; type: functional

Compound | Activity [1] [%] | inhibition in vivo at 10 mg/kg [2] [%] | Activity [3] [%] | Activity [4] [%] | UI [5] | Activity [6] [%] | inhibition in vivo at 10 mg/kg [7] [%] | inhibition in vivo at 10 mg/kg [8] [%] | inhibition in vivo at 10 mg/kg [9] [%]
CCC(CC)=NNc1nc2ccccc2c(=O)n1-c1cccc(OC)c1 | 56 | 34 | 66 | 38 | 0.51 | 61 | 53 | 45 | 48
CCC/C(C)=N/Nc1nc2ccccc2c(=O)n1-c1cccc(OC)c1 | 57 | 34 | 68 | 41 | 0.58 | 64 | 49 | 42 | 47
COc1cccc(-n2c(NN=C3CCCCC3)nc3ccccc3c2=O)c1 | 46 | 31 | 53 | 38 | 0.61 | 49 | 43 | 37 | 40
COc1cccc(-n2c(N/N=C(\C)c3ccccc3)nc3ccccc3c2=O)c1 | 44 | 32 | 51 | 36 | 0.62 | 46 | 45 | 39 | 42
COc1cccc(-n2c(N/N=C3/C(=O)Nc4ccccc43)nc3ccccc3c2=O)c1 | 39 | 31 | 46 | 36 | – | 43 | 40 | 35 | 37
COc1cccc(-n2c(N/N=C\c3ccccc3)nc3ccccc3c2=O)c1 | 40 | 31 | 47 | 35 | – | 47 | 47 | 35 | 38
COc1cccc(-n2c(N/N=C\c3ccccc3Cl)nc3ccccc3c2=O)c1 | 32 | 27 | 42 | 33 | – | 39 | 37 | 29 | 33
COc1cccc(-n2c(N/N=C\c3ccc(Cl)cc3)nc3ccccc3c2=O)c1 | 34 | 27 | 42 | 34 | – | 40 | 37 | 33 | 36
COc1cccc(-n2c(N/N=C\c3ccccc3[N+](=O)[O-])nc3ccccc3c2=O)c1 | 35 | 27 | 45 | 36 | – | 41 | 38 | 35 | 35
COc1cccc(-n2c(N/N=C\c3ccc([N+](=O)[O-])cc3)nc3ccccc3c2=O)c1 | 35 | 29 | 42 | 36 | – | 40 | 37 | 33 | 35
COc1ccc(/C=N\Nc2nc3ccccc3c(=O)n2-c2cccc(OC)c2)cc1 | 30 | 27 | 41 | 30 | – | 37 | 37 | 29 | 35
COc1cccc(-n2c(N/N=C\c3ccccc3C)nc3ccccc3c2=O)c1 | 39 | 30 | 51 | 34 | – | 45 | 42 | 36 | 41
COc1cccc(-n2c(N/N=C\c3ccc(C)cc3)nc3ccccc3c2=O)c1 | 44 | 28 | 50 | 37 | – | 48 | 40 | 32 | 35
COc1cccc(-n2c(NN=C(c3ccccc3)c3ccccc3)nc3ccccc3c2=O)c1 | 41 | 30 | 49 | 36 | – | 46 | 41 | 33 | 38
CC/C(C)=N/Nc1nc2ccccc2c(=O)n1-c1cccc(OC)c1 | 53 | 32 | 61 | 37 | 0.53 | 58 | 46 | 41 | 45
CC(=O)Oc1ccccc1C(=O)O [ASPIRIN] | – | – | – | – | 1.73 | – | – | – | –
O=C([O-])Cc1ccccc1Nc1c(Cl)cccc1Cl.[Na+] [DICLOFENAC SODIUM] | 37 | 33 | 45 | 33 | 1.65 | 43 | 39 | 32 | 38
